Assay results as given in publication PMC8348310, “Antioxidants Isolated from Elaeagnus umbellata (Thunb.) Protect against Bacterial Infections and Diabetes in Streptozotocin-Induced Diabetic Rat Model” (Molecules, 2021).

Experiments:
Assay type in all cases: in vivo, Sprague Dawley adult albino rats
[1] = test system: STZ-induced diabetic rats; experiment: STZ-induced diabetic rat model: serum biochemical parameters (liver, renal, lipid profile, HbA1c)
Protocol: (§1) All the animals were separated into nine groups having eight animals each (Table 1). In the current investigational study STZ-induced diabetic model was used to evaluate the anti-hyperglycemic and anti-hyperlipidemic activity of isolated compound morin in chronic multiple dose experiment. All the animals were treated with their respective treatments for 21 days starting daily at 09:00 am. The fasting blood glucose levels were determined at 0, 4th, 7th, 10th, 15th, and 21st days with glucometer from the tail vein. Changes in the body weight were recorded for untreated control, diabetic, and treated groups in fasting condition from day 1 to day 21 of experimental period and are presented as % increase in body weight.
(§2) According to the reported protocol diabetes was induced into Sprague Dawley adult albino rats by intraperitoneal injection of STZ (50 mg/kg body weight). Blood samples were collected from the tail vein through glucometer strips by means of SD glucometer and the level of blood glucose was measured 72 h after STZ injection. Normal control groups were given normal saline (8 mL/kg, p.o.) as a vehicle, while isolated compound morin to the treatment groups from 3 days after STZ administration for 3 weeks. Animals with blood glucose levels higher than 300 mg/dL were considered diabetic. During the experiment the blood glucose level and body weights were measured.
On 21st day of in vivo antidiabetic activity, all the animals were anesthetized by intraperitoneal (IP) injection of pentobarbital sodium (35 mg/kg body weight) and euthanized by means of cervical decapitation according to the ARRIVE guidelines. Blood samples were collected by cardiac puncture and transferred to EDTA containing tubes. Blood was centrifuged at 3500 rpm for 10 min for the separation of serum. Biochemical parameters like serum alkaline phosphatase (ALP), serum glutamate pyruvate transaminase (SGPT), serum glutamate oxaloacetate transaminase (SGOT) and lipid parameters like total cholesterol (TC), triglycerides (TG), low-density lipoproteins (LDL), high-density lipoprotein (HDL), and serum creatinine in serum were assessed by using Biochemistry analyzer (PS-520; Shenzhen Procan Electronics-China) using diagnostic kits (Reactivos, GPL Barcelona, Spain). According to the reported protocol an enzyme-linked immunosorbent assay (ELISA) kit was used to evaluate the level of glycosylated hemoglobin (HbA1c).

[2] = test system: STZ-induced diabetic rats; experiment: Antioxidant enzymes and oxidative stress markers in pancreas tissue homogenates of STZ-induced diabetic rats
Protocol: (§3) The pancreas tissue (1 g) was isolated from Sprague Dawley rats, washed with cold saline solution and blotted dried. A weighed portion of the pancreas tissue was homogenized on ice and then centrifuged for 15 min at 3500 rpm at 4 °C. The supernatant was then taken and stored at −20 °C until assessed for different enzymes.
The activities of reduced glutathione (GSH) level were determined in the pancreatic tissues according to the previously established method. About 300 µL of tissue supernatant was centrifuged for 5 min at 3500 rpm following deproteinization with 300 µL of 10% trichloroacetic acid. In total, 200 µL of the resulting supernatant of each sample (at concentrations 2, 5, 10, 15, 30, and 50 µg/mL) was mixed with 50 µL of Ellman’s reagent (5,5′-dithiobis-(2-nitro-benzoic acid)) (DTNB) then centrifuged at 3000 rpm for 15 min. The absorbance was recorded at 412 nm. A series of standards treated in a similar way were also run to determine the glutathione content. The amount of glutathione is expressed as µmole/mg of tissue protein.
. […] The pink colored TBARS was measured photometrically at 532 nm and tissue MDA was determined from a standard curve and is expressed as nmole/mg of tissue protein. […]

[3] = test system: STZ-induced diabetic rats; experiment: STZ-induced diabetic rat model: fasting blood glucose and body weight
Protocol: Sprague Dawley adult albino rats (body weight range = 170–200 g) were used in in vivo studies. The animals were purchased from Rifah Institute of Pharmaceutical Sciences Islamabad. The entire animals were given food and fresh water ad libitum. The animals were adjusted at room temperature around 22–25 °C. The animals were housed three rats per cage and maintained with light/dark cycle of about 12 h. All the in vivo procedures were carried out according to the ARRIVE guidelines and approval was taken from the Departmental Animal Ethical Committee (DAEC/2019/1), University of Malakand.
as §1, §2

[4] = test system: STZ-induced diabetic rats; experiment: Ex vivo DPPH scavenging of pancreas tissue homogenates (intracellular ROS level); design: dose or concentration left out as unconfirmed
Protocol: as §3
Cellular oxidative stress due to the overproduction of reactive oxygen species (ROS) generated by streptozotocin was measured in pancreas tissues through DPPH free radical scavenging assays. Briefly, 50 µL (0.3 mM) DPPH in methanol was incubated with 100 µL supernatant of the tissue homogenates of each experimental group and […] in the dark for 30 min at room temperature. Ascorbic acid was used as the standard. The absorbance was then read against a blank at 517 nm. The percentage scavenging was calculated according to the equation No 1.

[5] = test system: STZ-induced diabetic rats; experiment: Pancreas histopathological assessment (H & E)
Source text: For histopathological assessment, the pancreas tissues were removed immediately and washed with cold saline solution to remove the blood. Finally, the pancreas portions were fixed in 10% formalin, dehydrated with mixture of ethanol/xylene and then fixed with paraffin. Staining of tissue slides was done with hematoxylin and eosin (H & E) dye through automatic slide stainer (Sakura Tissue-Tek® DRS™ 2000; Tokyo, Japan). According to the reported assay, the stained slides were observed under microscope to see any variation in pancreatic tissue architecture of STZ-induced diabetic group and treated (glibenclamide/morin) groups.

[6] = glibenclamide 0.5 mg/kg, morin 15, 30, and 50 mg/kg, vs diabetic control rats
[7] = glibenclamide 5 mg/kg, morin 15, 30, and 50 mg/kg body weight, serum, day 21, vs diabetic control

In the case of `O=c1c(O)c(-c2ccc(O)cc2O)oc2cc(O)cc(O)c12` [Morin, 2-(2,4-Dihydroxyphenyl)-3,5,7-trihydroxychromen-4-one], the HDL cholesterol [1, 6] is reported as “significantly increased (p < 0.01)”, the HbA1c level [1, 6] is reported as “significant decrease (p < 0.01; p < 0.001)” and the LDL level [1, 6] is reported as “significant decrease (p < 0.01; p < 0.001)”. For the same compound, the TC level [1, 6] was “significant decrease (p < 0.01; p < 0.001)”, the TG level [1, 6] was “significant decrease (p < 0.01; p < 0.001)” and the serum creatinine level ([1]; glibenclamide 5 mg/kg, morin 15, 30, and 50 mg/kg body weight, day 21, vs diabetic control) was “significantly reduced (p < 0.01; p < 0.001)”. For the same compound, the ALP level [1, 7] was “significantly reduced (p < 0.01; p < 0.001)”, the SGOT level [1, 7] was “significantly reduced (p < 0.01; p < 0.001)” and the SGPT level [1, 7] was “significantly reduced (p < 0.01; p < 0.001)”. For the same compound, the “MDA level (lipid peroxidation)” value ([2]; morin 2, 5, 10, 15, 30, and 50 µg/kg body weight, pancreas tissue homogenates) was “significantly (p < 0.05, p < 0.01, p < 0.001) decreased”, the GPx activity ([2]; morin, pancreatic tissues homogenates of diabetic rats) was “significantly increased” and the body weight gain ([3]; morin 10 mg/kg body weight) was “significant (p < 0.01) increases”. For the same compound, the blood glucose level ([3]; morin 2 and 5 mg/kg body weight) was “slowly reduce blood glucose level”, the glucose level ([3]; morin 10, 15, 30, and 50 mg/kg body weight, compared to the diabetic control group) was “comparable decline in glucose level” and the body weight gain ([3]; morin 15, 30, and 50 mg/kg body weight) was “significant (p < 0.001) improvement”. For the same compound, the blood glucose level ([3]; morin oral 30, 15, 50 mg/kg body weight, vs diabetic control) was “significant (p ˂ 0.01) decrease”, the “% DPPH inhibition activity in the pancreas tissues” value (“% DPPH inhibition activity” for short) ([4]; morin 2 treated group, diabetic control 22.41 ± 4.25) was 49.88 ± 3.21% and the “% DPPH inhibition activity” value ([4]; morin 5 treated group) was 52.66 ± 2.81%. The “% DPPH inhibition activity” value ([4]; morin 10 treated group) was 60.42 ± 2.12%, the “% DPPH inhibition activity” value ([4]; morin 15 treated group) was 65.33 ± 22.13% and the “% DPPH inhibition activity” value ([4]; morin 30 treated group) was 69.33 ± 3.12%. For the same compound, the “% DPPH inhibition activity” value ([4]; morin 50 treated group) was 71.42 ± 3.23%, the pancreas histopathology ([5]; morin 2, 5 mg/kg orally) was “did not show restoration of pancreatic tissue” and the pancreas histopathology ([5]; morin 10, 15 mg/kg orally) was “significant dose dependent improvement in cellular architecture”. For the same compound, the pancreas histopathology ([5]; morin 30, 50 mg/kg orally) was “normal histological pattern of pancreas”.
